The source of these data is patent US9034866B2 (Genentech, Inc., priority 2012, dated 2015).

For this assay, the target named is nuclear factor-kappa B (NF-kB)-inducing kinase (NIK) (Homo sapiens (Human), UniProt Q99558). Nature of the assay: NIK Enzyme Inhibition Assay (Transcreener ADP fluorescence polarization). In kind it is biochemical. To be noted: purified NIK 0.2-1 nM, 10 uM ATP, Morrison's quadratic equation; read-out: NIK ADP-FP (Ki uM). In a few lines:
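Baculovirus/insect-cell-expressed NIK (0.2-1 nM) incubated with compounds 1-3.5 h at 10 uM ATP. Buffer: 50 mM HEPES pH 7.2, 10 mM MgCl2, 2 mM DTT, 1% DMSO. ADP detected by Transcreener fluorescence polarization (ADP antibody, AlexaFluor 633 tracer) after EDTA quench.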
(In general: Fluorescence polarisation rises when a labelled molecule tumbles more slowly, as on binding a larger partner.)

nuclear factor-kappa B (NF-kB)-inducing kinase (NIK), sequence (Q99558 whole entry): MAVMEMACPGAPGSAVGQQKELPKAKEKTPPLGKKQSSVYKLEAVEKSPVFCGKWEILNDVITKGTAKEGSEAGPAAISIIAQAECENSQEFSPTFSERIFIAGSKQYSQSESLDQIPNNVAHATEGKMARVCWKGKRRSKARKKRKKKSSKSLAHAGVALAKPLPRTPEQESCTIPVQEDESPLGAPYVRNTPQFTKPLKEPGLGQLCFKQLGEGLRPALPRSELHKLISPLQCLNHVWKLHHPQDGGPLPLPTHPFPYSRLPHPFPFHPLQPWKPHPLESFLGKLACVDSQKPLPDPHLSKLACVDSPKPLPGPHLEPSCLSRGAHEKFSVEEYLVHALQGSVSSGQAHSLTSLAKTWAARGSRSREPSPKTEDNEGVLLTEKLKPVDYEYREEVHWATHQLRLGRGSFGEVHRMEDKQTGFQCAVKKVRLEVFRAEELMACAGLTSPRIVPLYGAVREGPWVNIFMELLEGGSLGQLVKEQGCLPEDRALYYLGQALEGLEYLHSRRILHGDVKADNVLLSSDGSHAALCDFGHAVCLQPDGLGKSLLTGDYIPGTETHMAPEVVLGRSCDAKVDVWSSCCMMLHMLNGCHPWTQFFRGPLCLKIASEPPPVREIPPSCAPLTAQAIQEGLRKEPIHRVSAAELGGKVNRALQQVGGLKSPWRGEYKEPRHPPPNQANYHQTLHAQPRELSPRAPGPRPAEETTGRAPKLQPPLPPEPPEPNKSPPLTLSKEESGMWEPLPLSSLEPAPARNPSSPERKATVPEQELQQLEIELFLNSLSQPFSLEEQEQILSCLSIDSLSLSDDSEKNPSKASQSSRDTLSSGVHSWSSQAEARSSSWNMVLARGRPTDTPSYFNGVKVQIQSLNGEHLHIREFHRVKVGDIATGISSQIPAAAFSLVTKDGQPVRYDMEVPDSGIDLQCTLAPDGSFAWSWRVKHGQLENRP

Consider `CN1CC[C@](O)(C#Cc2cc3c(cc2F)C2CC(C2)n2c-3nc(C(N)=O)c2C(C)(C)O)C1=O` [Example 325, 9-fluoro-3-(1-hydroxy-1-methyl-ethyl)-10-[2-[(3S)-3-hydroxy-1-methyl-2-oxo-pyrrolidin-3-yl]ethynyl]-5,6,7,12-tetra-hydro-5,7-methanobenzo[c]imidazo-[1,2-a]azepine-2-carboxamide], for which the Ki is above 1.2 µM. The value for `CC(O)(C#Cc1cc2c(cc1F)OCCn1cc(C(N)=O)nc1-2)c1ncccn1` (stereo not drawn) [Example 16, 8-fluoro-9-(3-hydroxy-3-pyrimidin-2-yl-but-1-ynyl)-4,5-dihydro-6-oxa-1,3a-diaza-benzo[e]azulene-2-carboxylic acid amide] was 0.025 µM; that for `CC(C)(O)C#Cc1ccc2c(c1)-c1nc(C(N)=O)sc1C(CC(N)=O)CO2` (racemic) [Example 49] was 0.023 µM. The value for `CC(C)(O)C#Cc1cc2c(cc1F)OCCn1c-2nc(C(N)=O)c1C(=O)NC(C)(C)C#N` (racemic) [Example 61] was 0.105 µM; that for `CNC(=O)c1c(C(N)=O)nc2n1CCOc1cc(F)c(C#CC(C)(O)CO)cc1-2` (racemic) was 0.002 µM. The value for `CC(C)(O)C#Cc1cc2c(cc1F)OCCn1c-2nc(C(N)=O)c1Cc1ccccc1` [Example 24, 3-benzyl-8-fluoro-9-(3-hydroxy-3-meth-yl-but-1-ynyl)-4,5-dihydro-6-oxa-1,3a-diaza-benzo[e]azulene-2-carboxylic acid amide] was 0.011 µM; that for `CC(O)(C#Cc1ccc2c(c1)-c1nc(C(N)=O)cn1C1CC2C1)CO` (stereo not drawn) [Example 181, 10-(3,4-dihydroxy-3-methyl-but-1-ynyl)-5,6,7,12-tetrahydro-5,7-methanoben-zo[c]imidazo[1,2-a]azepine-2-carboxamide] was 0.036 µM. With `NC(=O)c1nc2c(s1)CCOc1ccc(C#CC3(O)CCCC3)cc1-2` [Example 4, 9-(1-hydroxy-cyclopentylethynyl)-4,5-di-hydro-6-oxa-3-thia-1-aza-benzo[e]azu-lene-2-carboxylic acid amide], the Ki worked out at 0.004 µM. The value for `Cc1nc([C@](C)(O)C#Cc2ccc3c(c2)-c2nc(C(N)=O)cn2C2CC3C2)no1` was 0.003 µM. The value for `CC(C)(O)C#Cc1ccc2c(c1)-c1nc(C(N)=O)c(C(F)(F)F)n1CCO2` (racemic) [Example 198] was 0.54 µM; that for `CC(C)(O)C#Cc1cc2c(cc1F)C1CC(C1)n1c-2nc(C(N)=O)c1CN1CCOCC1` was 0.021 µM; that for `Cc1nc(C(C)(O)C#Cc2cc3c(cc2Cl)OCCn2cc(C(N)=O)nc2-3)no1` (racemic) [Example 231] was above 5 µM. The value for `CC(C)N(C)Cc1c(C(N)=O)nc2n1C1CC(C1)c1cc(F)c(C#CC(C)(C)O)cc1-2` [Example 223] was 0.16 µM. With `CC(O)(C#Cc1cc2c(cc1F)OCCn1c-2nc(C(N)=O)c1C1CC1)CO` (stereo not drawn), the Ki turned out to be 0.098 µM.

As for `CC(C)(O)C#Cc1ccc2c(c1)-c1nc(C(N)=O)c(Cn3ncc4ccccc43)n1CCO2`, the Ki is 0.14 µM. As for `CC(O)(C#Cc1cc2c(cc1F)OCCn1c-2nc(C(N)=O)c1C1CC1)c1ccccn1` (stereo not drawn), the Ki was determined as 0.037 µM. The value for `CC(C)(O)C#Cc1ccc2c(c1)-c1nc(C(N)=O)sc1CCO2` [Example 3, 9-(3-hydroxy-3-methyl-but-1-ynyl)-4,5-dihydro-6-oxa-3-thia-1-aza-benzo[e]azu-lene-2-carboxylic acid amide] was 0.033 µM; that for `CNC(=O)c1c(C(N)=O)nc2n1CCOc1cc(F)c(C#C[C@@](C)(O)c3noc(C)n3)cc1-2` [Example 97, 8-fluoro-9-[(R)-3-hydroxy-3-(5-methyl-[1,2,4]oxadiazol-3-yl)-but-1-ynyl]-4,5-dihydro-6-oxa-1,3a-diaza-ben-zo[e]azulene-2,3-dicarboxylic acid 2-amide 3-methylamide] was 0.007 µM; that for `CC(C)(O)C#Cc1cc2c(cc1F)OCCn1c-2nc(C(N)=O)c1C(=O)NC1CN2CCC1CC2` (racemic) was 0.453 µM.

With `CC(O)(C#Cc1cc2c(cc1F)OCCn1cc(C(N)=O)nc1-2)c1ncccc1F` (stereo not drawn) [Example 252], the inhibition constant Ki stood at 0.025 µM.

On to `CN1CC[C@@](O)(C#Cc2ccc3c(c2)-c2nc(C(N)=O)sc2C2CC3C2)C1=O` [Example 609, (R)-9-((3-hydroxy-1-methyl-2-oxopyrro-lidin-3-yl)ethynyl)-5,6-dihydro-4H-4,6-methanobenzo[6,7]cyclohepta[1,2-d]thiazole-2-carboxamide], for which the Ki amounted to 0.00094 µM. Consider `Cn1cncc1C(O)c1c(C(N)=O)nc2n1C1CC(C1)c1cc(F)c(C#CC(C)(C)O)cc1-2` (stereo not drawn) [listing 1 of 2 here], for which the inhibition constant (Ki) came out at 0.031 µM. On to `Cc1cc([C@](C)(O)C#Cc2ccc3c(c2)-n2nc(C(N)=O)cc2C2(CCC2)CO3)no1` [Example 716, (R)-9-(3-hydroxy-3-(5-methylisoxazol-3-yl)but-1-yn-1-yl)-5H-spiro[benzo[b]py-razolo[1,5-d][1,4]oxazepine-4,1′-cyclo-butane]-2-carboxamide], for which the Ki stood at 0.008 µM. Consider `Cc1nn(C)cc1C(O)c1c(C(N)=O)nc2n1CCOc1cc(F)c(C#CC(C)(C)O)cc1-2` (stereo not drawn) [Example 169], for which the Ki is 0.023 µM. In the case of `CC(C)(O)C#Cc1ccc2c(c1)-c1nc(C(N)=O)c(Cn3ncc4cccnc43)n1CCO2`, the Ki came out at 0.2 µM. In the case of `CN1CC[C@@](O)(C#Cc2ccc3c(c2)-n2nc(C(N)=O)c(C(F)F)c2CCO3)C1=O` [Example 718, (R)-3-(difluoromethyl)-9-((3-hydroxy-1-methyl-2-oxopyrrolidin-3-yl)ethynyl)-4,5-dihydrobenzo[b]pyrazolo[1,5-d][1,4]oxazepine-2-carboxamide] it was 0.0003 µM; in that of `Cn1cncc1C(O)c1c(C(N)=O)nc2n1C1CC(C1)c1cc(F)c(C#CC(C)(C)O)cc1-2` (stereo not drawn) [listing 2 of 2 here], 0.011 µM; in that of `CC(C)(O)C#Cc1cc2c(cc1F)C1CC(C1)c1c-2nc(C(N)=O)n1Cc1ccccc1Cl`, 0.0036 µM.

Regarding `NC(=O)c1cn2c(n1)-c1cc(C#CC3(O)CCNC3)ccc1OCC2` (stereo not drawn) [Example 29, 9-(3-hydroxy-pyrrolidin-3-ylethynyl)-4,5-dihydro-6-oxa-1,3a-diaza-benzo[e]azu-lene-2-carboxylic acid amide], the Ki was above 5 µM.

On to `CC(O)(C#Cc1cc2c(cc1F)C1CC(C1)n1cc(C(N)=O)nc1-2)CO` (stereo not drawn), for which the Ki came to 0.014 µM. In the case of `Cn1cncc1C(O)c1c(C(N)=O)nc2n1C1CC(C1)c1cc(F)c(C#CC3(O)CCCC3)cc1-2` (stereo not drawn) it was 0.014 µM; in that of `CC(O)(C#Cc1cc2c(cc1F)OCCn1cc(C(N)=O)nc1-2)C(=O)N1CC(C#N)C1` (stereo not drawn) [Example 95], 0.304 µM; in that of `Cc1nnc(C(C)(O)C#Cc2ccc3c(c2)-c2nc(C(N)=O)cn2CCO3)o1` (stereo not drawn), 0.028 µM. The value for `Cn1nccc1Cc1c(C(N)=O)nc2n1C1CC(C1)c1cc(F)c(C#CC(C)(C)O)cc1-2` was 0.0024 µM; that for `Cc1cc([C@](C)(O)C#Cc2ccc3c(c2)-c2nc(C(N)=O)c(C(=O)NCc4cccc(F)c4)n2CCO3)no1` [Example 713, (R)-N3-(3-fluorobenzyl)-10-(3-hydroxy-3-(5-methylisoxazol-3-yl)but-1-yn-1-yl)-5,6-dihydrobenzo[f]imidazo[1,2-d][1,4]oxazepine-2,3-dicarboxamide] was above 1.2 µM. The value for `CN1CCN(Cc2c(C(N)=O)nc3n2C2CC(C2)c2cc(F)c(C#CC(C)(C)O)cc2-3)CC1` (racemic) was 0.12 µM.

Broadly, the Ki is the equilibrium dissociation constant of an inhibitor or competing ligand from its target.
